Assay results reported in patent US5985874A, “Substituted morpholine derivative and its use as a therapeutic agent” (Merck Sharp & Dohme Ltd., priority 1998, dated 1999).

Assays:
NK1 receptor = NK1 receptor (Homo sapiens, UniProt P25103); assay: NK1 receptor test by the methods of WO 93/01165 (pages 36 to 39); format: binding; conditions: test methods of WO 93/01165, pages 36 to 39
Method: The compound of this invention was tested by the methods set out at pages 36 to 39 of International Patent Specification No. WO 93/01165.

cisplatin-induced emesis = assay: ferret model of cisplatin-induced emesis (Tattersall et al, Eur. J. Pharmacol. 1993); format: in vivo

Chain of NK1 receptor (P25103 whole entry): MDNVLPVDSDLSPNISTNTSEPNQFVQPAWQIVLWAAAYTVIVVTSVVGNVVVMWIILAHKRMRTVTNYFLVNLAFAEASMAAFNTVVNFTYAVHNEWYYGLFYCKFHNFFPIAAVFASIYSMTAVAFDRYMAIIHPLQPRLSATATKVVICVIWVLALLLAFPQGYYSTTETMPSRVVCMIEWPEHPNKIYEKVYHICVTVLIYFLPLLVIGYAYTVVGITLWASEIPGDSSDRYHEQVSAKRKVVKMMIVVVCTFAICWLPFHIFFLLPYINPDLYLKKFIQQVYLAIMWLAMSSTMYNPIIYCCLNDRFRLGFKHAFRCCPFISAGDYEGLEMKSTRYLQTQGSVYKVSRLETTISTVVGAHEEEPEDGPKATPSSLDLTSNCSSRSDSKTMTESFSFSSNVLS

Cn1cnc(CN2CCO[C@H](O[C@H](CO)c3cc(C(F)(F)F)cc(C(F)(F)F)c3)[C@@H]2c2ccc(F)cc2)n1 [Example 1, 2(R)-(1-(3,5-Bis(trifluoromethyl)phenyl)-2(S)-hydroxyethoxy)-3(S)-(4-fluorophenyl)-4-((1-methyl-1,2,4-triazol-3-yl)methylene)morpholine]
IC50 (NK1 receptor): < 1 nM | retching and vomiting induced by cisplatin (cisplatin-induced emesis): attenuate the retching and vomiting induced by cisplatin
